From ChEMBL document CHEMBL1201862, “PubChem BioAssay data set” (2004)
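Tested at 5 concentrations; 48 h exposure; 96-well plates; endpoints linearly interpolated, else capped at highest concentration. GI50 is the concentration that inhibits growth by half.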 Calls of active or inactive are those of the source. Cut-off read from the data, not from the text of the source: active = GI50 up to about 1.1 µM and inactive = higher. Non-standard residues stand in square brackets, D forms with d. Residues, ends and D or L forms follow the SMILES beside them. *: point of attachment. hSer = N[CH](CCO)C(=O)O; Boc = CC(C)(C)OC(=O)*

Key:
Test in all cases: inhibition of tumour cell growth, NCI panel, 48 h
U-251 = tested on: U-251
HOP-62 = tested on: HOP-62
ACHN = tested on: ACHN
KM12 = tested on: KM12
NCI-H522 = tested on: NCI-H522
T47D = tested on: T47D
HCT-116 = tested on: HCT-116
CAKI-1 = tested on: CAKI-1
HCC 2998 = tested on: HCC 2998
MCF7 = tested on: MCF7
RPMI-8226 = tested on: RPMI-8226
A498 = tested on: A498
SW-620 = tested on: SW-620
SNB-19 = tested on: SNB-19
OVCAR-3 = tested on: OVCAR-3
SR = tested on: SR
MDA-MB-231 = tested on: MDA-MB-231
IGROV-1 = tested on: IGROV-1
CCRF-CEM = tested on: CCRF-CEM
NCI-H460 = tested on: NCI-H460

Measured: GI50

CCC1OC(=O)CC(O)C(C)C(OC2OC(C)C(O)C(N(C)C)C2O)C(CC=O)CC(C)C(=O)/C=C/C2(C)OC2C1C (stereo not given)
inactive: U-251 30.2 µM | HOP-62 33.4 µM | ACHN 25.8 µM | KM12 15.3 µM | NCI-H522 18.5 µM | T47D 17.2 µM | HCT-116 17.9 µM | CAKI-1 23.1 µM | HCC 2998 15.9 µM | MCF7 21.5 µM | RPMI-8226 11.1 µM | A498 36.9 µM | SW-620 20 µM | SNB-19 44.4 µM | OVCAR-3 23.3 µM | SR 13.5 µM | MDA-MB-231 24 µM | IGROV-1 23.1 µM | CCRF-CEM 17.2 µM | NCI-H460 32.4 µM

COCCC(NC(=O)C(CC(C)C)NC(=O)OC(C)(C)C)C(N)=O (stereo not drawn) (Boc-Leu-[hSer](Me)-NH2; configuration not given here)
inactive: U-251 > 100 µM | HOP-62 > 100 µM | ACHN > 100 µM | KM12 > 100 µM | NCI-H522 > 100 µM | T47D > 100 µM | HCT-116 > 100 µM | CAKI-1 > 100 µM | HCC 2998 > 100 µM | MCF7 > 100 µM | RPMI-8226 > 100 µM | A498 > 100 µM | SW-620 > 100 µM | SNB-19 > 100 µM | OVCAR-3 > 100 µM | SR > 100 µM | MDA-MB-231 > 100 µM | IGROV-1 > 100 µM | CCRF-CEM > 100 µM | NCI-H460 > 100 µM
